{
  "source": "paper PMC10294390",
  "about": "(BMC Complementary Medicine and Therapies, 2023)",
  "key": {"[1]": {"system": "CRL1554 normal human fibroblast cells", "assay": "MTT assay, cytotoxicity of PPCs on normal fibroblasts", "settings": "PPCs 20-160 µM, 72 h", "protocol": "The cytotoxicity of a panel of 14 PPCs (Kmf, Cur, Que, Rsv, HHG, Hsp, BetA, IC3, Cmr, Sul, Irt, Lyc, Sil, and Snn) on CRL1554 normal human fibroblast cells was determined using the MTT assay [16]. CRL1554 cells were seeded (27 × 10^3 cells/well) into 96-well flat-bottomed plates and incubated at 37 °C for 18 h. Subsequently, the medium was removed, and the cells were washed with Hanks balanced salt solution (HBSS; 100 µl/well), and treated with various concentrations of PPCs (20, 40, 60, 80, 100, 120, 140 and 160 µM) for 72 h. The cells were then washed twice with HBSS, and 100 μl medium with 20 µl (5 mg/ml) MTT solution in PBS was added to each well and incubated at 37 °C for 4 h. The supernatants were aspirated, and 200 μL of dimethyl sulfoxide (DMSO) was added to dissolve the formazan crystals. Finally, the absorbance was measured using a multiwell spectrophotometer at two wavelengths (λ, 492 and 570 nm)."}, "[2]": {"system": "SW1116 human colon cancer cell line", "assay": "MTT assay, single and schedule-dependent combined treatment", "format": "cell-based", "settings": "Homo sapiens, SW 1116, PPC alone, MTT, Fig. 1B", "experimental": "(§1) The plates were washed, and PPCs [Cur, Kmf, or Que (60 or 120 µM), or Rsv (40 or 80 µM)] were added, followed by incubation at 37 °C for 48 h. For inverted sequential treatment, PPC [Cur, Kmf, or Que (60 or 120 µM), or Rsv (40 or 80 µM)] was added and incubated at 37 °C for 24 h. […] Cell growth was monitored as previously described."}, "[3]": {"system": "SW837 human rectum cancer cell line", "assay": "MTT assay, single and schedule-dependent combined treatment", "format": "cell-based", "settings": "Homo sapiens, SW837, SW837; PPC alone; MTT; Fig. 1C; read-out: IC50", "experimental": "as §1"}, "SW1116 cells [4]": {"system": "SW1116 cells", "assay": "Cell cycle analysis by flow cytometry (PI)", "format": "cell-based, human", "settings": "72 h", "experimental": "(§2) The cells were subsequently processed using a DNA-prep kit and DNA-Prep EPICS workstation. The cells were treated with a non-ionic detergent to permeabilize the cell membrane, followed by propidium iodide (PI) and RNase, and incubated at 15–20 °C for 15 min. The cells were resuspended in binding buffer at a concentration of 3–10 × 10^6 cells/ml for optimal staining. Fluorescence was measured using a flow cytometer (Beckman Coulter, Inc.), and the percentage of cells in the different phases of the cell cycle was calculated using the Phoenix statistical software package, Advanced DNA cell cycle software (Phoenix Flow System)."}, "SW837 cells [5]": {"system": "SW837 cells", "assay": "Cell cycle analysis by flow cytometry (PI)", "format": "cell-based, human", "settings": "72 h", "experimental": "as §2"}, "SW1116 cells [6]": {"system": "SW1116 cells", "assay": "Annexin V-FITC/PI double staining, flow cytometry", "format": "cell-based, human", "settings": "SW1116, 72 h", "experimental": "(§3) The levels of cell surface phosphatidylserine were determined to monitor the type of cell death and the kinetics of apoptosis. The CRC cell lines SW1116 and SW837 were seeded (2.5 × 10^5 cells/well) into 24-well plates and incubated in a non-CO2 incubator at 37 °C for 18 h. […] The cells were subsequently washed twice with HBSS and harvested using trypsin. Finally, the cells were double-stained using the Annexin V-FITC-Flous staining kit, according to the manufacturer’s instructions (Roche Diagnostic GmbH). Annexin V-Flous labelling solution containing Annexin V-FITC and PI (100 µl) was added to both the treated and control cell groups and incubated at 15–20 °C for 15 min. The cells (1 × 10^6 cells/ml) were then resuspended in binding buffer, and fluorescence was monitored using flow cytometry (FC500; Beckman Coulter, Inc.)."}, "SW837 cells [7]": {"system": "SW837 cells", "assay": "Annexin V-FITC/PI double staining, flow cytometry", "format": "cell-based, human", "settings": "SW837, 72 h", "experimental": "as §3"}, "SW1116 cells [8]": {"system": "SW1116 cells", "assay": "DNA fragmentation assay", "format": "cell-based, human", "settings": "Sora 5 µM, PPC 200 and 400 µM, simultaneous combinations, 72 h, Fig. 8A, C", "experimental": "(§4) Induction of apoptosis was monitored using a DNA fragmentation assay following the manufacturer’s instructions (Apoptotic DNA Ladder Detection kit; Abcam). […] Cells were subsequently incubated at 37 °C for 72 h. The cells were then trypsinized, harvested, washed, pelleted, and lysed using Tris–EDTA (TE) lysis buffer (35 µl). Enzyme A solution (RNase; 5 µl) was added, followed by incubation at 37 °C for 10 min. Enzyme B solution (proteinase; 5 µl) was then added, followed by incubation at 50 °C for 30 min. Ammonium acetate solution (5 µl) and isopropanol (50 µl) were added to each sample and incubated at -20 °C for 10 min. Finally, the DNA was pelleted, washed with 0.5 ml 70% methanol, and dissolved in 30 µl DNA suspension buffer. The extracted DNA samples were loaded onto a 1.2% agarose gel, along with a loading marker (1 kb DNA ladder), and subjected to electrophoresis, using a running buffer containing 1.35 µg/ml ethidium bromide at 5 V/cm for 1 h. Ethidium bromide-stained DNA bands were visualized using transillumination with UV light."}, "SW837 cells [9]": {"system": "SW837 cells", "assay": "DNA fragmentation assay", "format": "cell-based, human", "settings": "Sora 5 µM, PPC 200 and 400 µM, sequential combinations, 72 h, Fig. 8B, D", "experimental": "as §4"}, "SW1116 and SW837 cells": {"system": "SW1116 and SW837 cells", "assay": "Mitochondrial membrane potential (MMP) analysis, MitoNIR dye, flow cytometry", "format": "cell-based, human", "settings": "Cur 400 µM alone; 72 h; cell line not stated", "experimental": "The inner mitochondrial membrane is rich in negatively charged glycoproteins and is therefore negatively charged. The accumulation of high concentrations of protons outside of the inner membrane establishes the transmembrane potential. The MMP was monitored using the NIR Mitochondrial Membrane Potential Assay kit (Abcam) according to the manufacturer’s protocol. Briefly, cells (2.5 × 10^5 cells/well) were seeded into 24-well plates and incubated in a non-CO2 incubator at 37 °C for 18 h. […] MitoNIR Dye (200X; 5 µl/ml) was added to each sample, followed by incubation at 37 °C for 15–30 min. The cells were subsequently pelleted and resuspended in 1 ml assay buffer. Flow cytometry, in the FL4 channel (λExcitation/λEmission, 635/660 nm), was used to monitor the fluorescence intensity."}},
  "data": [
    {"smiles": "C=C(C)[C@@H]1CC[C@]2(C(=O)O)CC[C@]3(C)[C@H](CC[C@@H]4[C@@]5(C)CC[C@H](O)C(C)(C)[C@@H]5CC[C@]43C)[C@@H]12", "note": "[BetA, betulinic acid]", "values": [
      {"measurement": "cytotoxicity", "setting": "[1]", "value": "69–97.5%"}
    ]},
    {"smiles": "O=c1ccc2ccccc2o1", "note": "[Cmr, coumarin]", "values": [
      {"measurement": "cytotoxicity", "setting": "[1]", "value": "7.4–11.34%"}
    ]},
    {"smiles": "COc1cc(/C=C/C(=O)CC(=O)/C=C/c2ccc(O)c(OC)c2)ccc1O", "note": "[Cur, curcumin]", "values": [
      {"measurement": "IC50", "setting": "[2]", "value": 60, "unit": "µM"},
      {"measurement": "IC50", "setting": "[3]", "value": 150, "unit": "µM"},
      {"measurement": "%G0/G1 (cells in G0/G1 phase)", "setting": "SW1116 cells [4]; PPC 200 µM alone", "value": 49.1, "unit": "%"},
      {"measurement": "%G2/M (cells in G2/M phase)", "setting": "SW1116 cells [4]; PPC 200 µM alone", "value": 13.6, "unit": "%"},
      {"measurement": "%S (cells in S phase)", "setting": "SW1116 cells [4]; PPC 200 µM alone", "value": 37.1, "unit": "%"},
      {"measurement": "%G0/G1 (cells in G0/G1 phase)", "setting": "SW1116 cells [4]; PPC 400 µM alone", "value": 28.5, "unit": "%"},
      {"measurement": "%G2/M (cells in G2/M phase)", "setting": "SW1116 cells [4]; PPC 400 µM alone", "value": 11.3, "unit": "%"},
      {"measurement": "%S (cells in S phase)", "setting": "SW1116 cells [4]; PPC 400 µM alone", "value": 60, "unit": "%"},
      {"measurement": "%SubG1 (cells in sub G1)", "setting": "SW1116 cells [4]; PPC 400 µM alone", "value": 12, "unit": "%"},
      {"measurement": "%G0/G1 (cells in G0/G1 phase)", "setting": "SW837 cells [5]; PPC 200 µM alone", "value": 49.1, "unit": "%"},
      {"measurement": "%G2/M (cells in G2/M phase)", "setting": "SW837 cells [5]; PPC 200 µM alone", "value": 6.2, "unit": "%"},
      {"measurement": "%S (cells in S phase)", "setting": "SW837 cells [5]; PPC 200 µM alone", "value": 44.6, "unit": "%"},
      {"measurement": "%SubG1 (cells in sub G1)", "setting": "SW837 cells [5]; PPC 200 µM alone", "value": 14.7, "unit": "%"},
      {"measurement": "%G0/G1 (cells in G0/G1 phase)", "setting": "SW837 cells [5]; PPC 400 µM alone", "value": 58.1, "unit": "%"},
      {"measurement": "%G2/M (cells in G2/M phase)", "setting": "SW837 cells [5]; PPC 400 µM alone", "value": 2.4, "unit": "%"},
      {"measurement": "%S (cells in S phase)", "setting": "SW837 cells [5]; PPC 400 µM alone", "value": 39.4, "unit": "%"},
      {"measurement": "%SubG1 (cells in sub G1)", "setting": "SW837 cells [5]; PPC 400 µM alone", "value": 2.9, "unit": "%"},
      {"measurement": "B1, percentage of necrotic cells", "setting": "SW1116 cells [6]; PPC 200 µM alone", "value": 5.9, "unit": "%"},
      {"measurement": "B2, percentage of late apoptotic cells", "setting": "SW1116 cells [6]; PPC 200 µM alone", "value": 11.5, "unit": "%"},
      {"measurement": "B4, percentage of early apoptotic cells", "setting": "SW1116 cells [6]; PPC 200 µM alone", "value": 4.6, "unit": "%"},
      {"measurement": "B1, percentage of necrotic cells", "setting": "SW1116 cells [6]; PPC 400 µM alone", "value": 18.2, "unit": "%"},
      {"measurement": "B2, percentage of late apoptotic cells", "setting": "SW1116 cells [6]; PPC 400 µM alone", "value": 35.2, "unit": "%"},
      {"measurement": "B4, percentage of early apoptotic cells", "setting": "SW1116 cells [6]; PPC 400 µM alone", "value": 3.8, "unit": "%"},
      {"measurement": "B1, percentage of necrotic cells", "setting": "SW837 cells [7]; PPC 200 µM alone", "value": 60.9, "unit": "%"},
      {"measurement": "B2, percentage of late apoptotic cells", "setting": "SW837 cells [7]; PPC 200 µM alone", "value": 26.6, "unit": "%"},
      {"measurement": "B4, percentage of early apoptotic cells", "setting": "SW837 cells [7]; PPC 200 µM alone", "value": 0.3, "unit": "%"},
      {"measurement": "B1, percentage of necrotic cells", "setting": "SW837 cells [7]; PPC 400 µM alone", "value": 67.9, "unit": "%"},
      {"measurement": "B2, percentage of late apoptotic cells", "setting": "SW837 cells [7]; PPC 400 µM alone", "value": 32.3, "unit": "%"},
      {"measurement": "B4, percentage of early apoptotic cells", "setting": "SW837 cells [7]; PPC 400 µM alone", "value": 0.0, "unit": "%"},
      {"measurement": "induction of apoptosis as indicated by DNA fragmentation", "setting": "SW1116 cells [8]", "value": "marked induction of apoptosis"},
      {"measurement": "DNA fragmentation", "setting": "SW837 cells [9]", "value": "increased levels of DNA fragmentation"},
      {"measurement": "change in MMP (shift of MitoNIR red fluorescence)", "setting": "SW1116 and SW837 cells", "value": "no change in MMP"},
      {"measurement": "cytotoxicity", "setting": "[1]", "value": 0.0, "unit": "%"},
      {"measurement": "cytotoxicity", "setting": "[1]; listed as curcumin", "value": "≤ 20", "unit": "%"}
    ]},
    {"smiles": "COC(=O)C[C@](O)(CCCC(C)(C)O)C(=O)O[C@@H]1C(OC)=C[C@]23CCCN2CCc2cc4c(cc2[C@H]13)OCO4", "note": "[HHG, homoharringtonine]", "values": [
      {"measurement": "cytotoxicity", "setting": "[1]", "value": "99–100%"}
    ]},
    {"smiles": "COc1ccc([C@@H]2CC(=O)c3c(O)cc(O)cc3O2)cc1O", "note": "[Hsp, hesperetin]", "values": [
      {"measurement": "cytotoxicity", "setting": "[1]", "value": "0.0–4.4%"}
    ]},
    {"smiles": "OCc1c[nH]c2ccccc12", "note": "[I3C, indol-3-carbinol]", "values": [
      {"measurement": "cytotoxicity", "setting": "[1]", "value": "0.2–9.2%"}
    ]}
  ]
}
